Experimental data taken from PMC13026664, “Transcriptional Activation of Estrogen Receptor-Alpha and Estrogen Receptor-Beta from Elephant Shark (Callorhynchus milii)” (Genes, 2026).

Experiments:
[1] = test system: amphioxus steroid receptor (SR); settings: cited from earlier work
elephant shark ERa4 = test: Transcriptional activation of ERa4; format: cell-based, elephant shark (Callorhynchus milii); settings: ERa4 has a deletion in the DNA-binding domain
Protocol: (§1) Full-length estrogen receptors were amplified using specific forward and reverse primers designed at start and stop codons and cloned into the mammalian expression vector pcDNA3.1 (Invitrogen). In addition, ERs with a FLAG-tag added to the N-terminus were also prepared by PCR. A reporter construct, pGL4.23-4xERE, was produced by subcloning of oligonucleotides having 4xERE into the KpnI-HindIII site of pGL4.23 vector (Promega, Madison, WI, USA). All cloned DNA sequences were verified by sequencing.
Reporter gene assays using full-length ERs were performed in Human Embryonic Kidney 293 cells (HEK293 cells). HEK293 cells were seeded in 24-well plates at 5 × 10^4 cells/well in phenol-red-free Dulbecco’s modified Eagle’s medium with 10% charcoal/dextran-treated fetal bovine serum. […] After an additional 43 h, the cells were collected, and the luciferase activity of the cells was measured with the Dual-Luciferase Reporter Assay System. Promoter activity was calculated as firefly (Photinus pyralis) luciferase activity/sea pansy (R. reniformis) luciferase activity. The values shown are mean ± SEM from three separate experiments, and dose–response data, which were used to calculate the half-maximal response (EC50) for each steroid, were analyzed using GraphPad Prism (Version 11, GraphPad Software, Inc., San Diego, CA, USA). […]

amphioxus ER = settings: cited from earlier work
Atlantic sea lamprey ER = settings: cited from earlier work
elephant shark ERa3 = target: T1, elephant shark ERa3 (Callorhinchus milii, UniProt A0A1V1FR36)
T1 sequence (A0A1V1FR36 1-596): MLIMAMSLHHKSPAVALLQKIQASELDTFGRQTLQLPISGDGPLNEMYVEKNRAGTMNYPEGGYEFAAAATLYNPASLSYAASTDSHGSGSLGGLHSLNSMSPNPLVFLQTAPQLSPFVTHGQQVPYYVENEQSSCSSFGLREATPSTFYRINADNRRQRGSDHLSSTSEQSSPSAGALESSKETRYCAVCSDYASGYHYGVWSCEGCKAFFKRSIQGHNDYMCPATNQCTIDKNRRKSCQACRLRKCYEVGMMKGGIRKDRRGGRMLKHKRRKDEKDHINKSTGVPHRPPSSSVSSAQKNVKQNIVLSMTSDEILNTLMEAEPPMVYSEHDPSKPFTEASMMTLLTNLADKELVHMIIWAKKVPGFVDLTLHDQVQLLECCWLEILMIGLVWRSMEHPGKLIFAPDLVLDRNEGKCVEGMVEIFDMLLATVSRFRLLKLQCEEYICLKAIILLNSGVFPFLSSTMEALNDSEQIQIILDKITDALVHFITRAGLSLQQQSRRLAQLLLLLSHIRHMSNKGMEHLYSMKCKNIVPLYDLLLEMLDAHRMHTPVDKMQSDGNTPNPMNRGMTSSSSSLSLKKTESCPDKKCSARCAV
Protocol: as §1
(§2) Reporter gene assays using full-length ERs were performed in Human Embryonic Kidney 293 cells (HEK293 cells). HEK293 cells were seeded in 24-well plates at 5 × 10^4 cells/well in phenol-red-free Dulbecco’s modified Eagle’s medium with 10% charcoal/dextran-treated fetal bovine serum. After 24 h, the cells were transfected with 400 ng of reporter construct, 25 ng of pRL-TK (as an internal control to normalize the variation in transfection efficiency; contains the Renilla reniformis luciferase gene with the herpes simplex virus thymidine kinase promoter), and 200 ng of pcDNA3.1-estrogen receptor using polyethylenimine (PEI). After 5 h of incubation, ligands were applied to the medium at various concentrations. After an additional 43 h, the cells were collected, and the luciferase activity of the cells was measured with the Dual-Luciferase Reporter Assay System. Promoter activity was calculated as firefly (Photinus pyralis) luciferase activity/sea pansy (R. reniformis) luciferase activity. […] All experiments were performed in triplicate.
(§3) Elephant shark ERs were transfected into HEK293 cells with an ERE-driven reporter gene. […] Data are expressed as a ratio of a vehicle (DMSO) to other test chemicals. Each point represents the mean of triplicate determinations, and vertical bars represent the mean ± SEM.

elephant shark ERa2 = target: T2, elephant shark ERa2 (Callorhinchus milii, UniProt A0A1V1FR36)
T2 sequence (A0A1V1FR36 1-596): T1 sequence (A0A1V1FR36 1-596)
Protocol: as §1, §2, §3

elephant shark ERb = target: T3, elephant shark ERb (Callorhinchus milii, UniProt A0A1V1FJE9); test: cell-based
T3 sequence (A0A1V1FJE9 1-580): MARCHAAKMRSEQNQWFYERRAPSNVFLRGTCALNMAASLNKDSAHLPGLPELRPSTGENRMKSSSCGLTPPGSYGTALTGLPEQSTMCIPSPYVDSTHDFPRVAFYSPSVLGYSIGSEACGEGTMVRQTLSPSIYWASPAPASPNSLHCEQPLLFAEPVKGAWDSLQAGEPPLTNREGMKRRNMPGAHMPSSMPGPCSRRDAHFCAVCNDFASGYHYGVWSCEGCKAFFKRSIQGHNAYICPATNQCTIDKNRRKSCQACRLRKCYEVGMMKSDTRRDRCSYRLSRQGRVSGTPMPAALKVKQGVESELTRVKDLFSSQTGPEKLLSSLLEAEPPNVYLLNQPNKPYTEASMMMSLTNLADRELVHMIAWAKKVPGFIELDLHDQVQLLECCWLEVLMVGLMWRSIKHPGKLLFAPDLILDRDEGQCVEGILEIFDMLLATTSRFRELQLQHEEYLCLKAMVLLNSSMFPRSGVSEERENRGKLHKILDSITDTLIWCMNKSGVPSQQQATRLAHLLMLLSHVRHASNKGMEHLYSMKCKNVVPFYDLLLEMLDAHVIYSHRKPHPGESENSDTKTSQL
Protocol: as §1, §2, §3

elephant shark ERa1 = target: T4, elephant shark ERa1 (Callorhinchus milii, UniProt A0A1V1FR36); test: cell-based
T4 sequence (A0A1V1FR36 1-596): T1 sequence (A0A1V1FR36 1-596)
Protocol: as §1, §2, §3

[2] = HEK293, 43 h, read-out: Fold-Activation (±SEM)

Row | SMILES | Transcriptional activation of amphioxus SR [1] | Transcriptional activation of ERa4 (elephant shark ERa4) | Binding to amphioxus ER (amphioxus ER) | Activation of Atlantic sea lamprey ER (Atlantic sea lamprey ER) | Ratio (fold-activation of each estrogen divided by the value of E2) (elephant shark ERa3; ERa3 in HEK293, 10 nM) | Fold-Activation (±SEM) (elephant shark ERa3; ERa3 in HEK293, based on the 10 nM values, ratio to vehicle (DMSO), 2580 min) | EC50 (elephant shark ERa3; read-out: EC50 for transcriptional activation, ERa3 in HEK293, 4xERE luciferase reporter) [nM] | Ratio (fold-activation of each estrogen divided by the value of E2) (elephant shark ERa2; ERa2 in HEK293, 10 nM) | Fold-Activation (±SEM) (elephant shark ERa2; ERa2 in HEK293, based on the 10 nM values, ratio to vehicle (DMSO), 2580 min) | EC50 (elephant shark ERa2; read-out: EC50 for transcriptional activation, ERa2 in HEK293, 4xERE luciferase reporter) [nM] | EC50 (elephant shark ERb) [nM] | Ratio (fold-activation of each estrogen divided by the value of E2) (elephant shark ERb; ERb in HEK293, 10 nM) | fold induction at 0.01 µM (elephant shark ERb; [2]) | EC50 (elephant shark ERa1) [nM] | Ratio (fold-activation of each estrogen divided by the value of E2) (elephant shark ERa1; ERa1 in HEK293, 10 nM) | fold induction at 0.01 µM (elephant shark ERa1; [2])
1 | C[C@]12CC[C@@H]3c4ccc(O)cc4CC[C@H]3[C@@H]1CC[C@@H]2O [E2, 17b-estradiol] | transcriptional activators | lack of transcriptional activation | does not bind | activated |  |  |  |  |  |  |  |  |  |  |  | 
2 | C[C@]12CC[C@@H]3c4ccc(O)cc4CC[C@H]3[C@@H]1C[C@@H](O)[C@@H]2O [E3, estriol] |  |  |  |  | 1.07 | 1.87 (±0.15) | 0.29 | 1.02 | 1.82 (±0.13) | 0.31 | 0.02 | 1.08 | 3.49 | 0.2 | 0.95 | 1.57
3 | C[C@]12CC[C@@H]3c4ccc(O)cc4CC[C@H]3[C@@H]1CCC2=O [E1, Estrone] | transcriptional activators |  |  | activated |  |  |  |  |  |  | 0.14 |  |  |  |  | 
